Assay [1] relates to Influenza A virus (hanfang359/95). As to the kind of experiment: Determination of anti-influenza virus activity (CPE in MDCK cells). The format is cell-based. Particulars: Influenza A virus, MDCK, 36 h.
In assay [2] the test system is Coxsackie virus B6. As to the kind of experiment: Coxsackie virus activity assay (CPE in Vero cells). It is filed as cell-based. Particulars: Vero, read-out: COX-B6 IC50, Vero cells, about 100TCID50, CPE, Reed-Muench.
Assay [3] has as its system HCV. As to the kind of experiment: Anti-hepatitis C virus (HCV) activity assay (HCV RNA in Huh7.5 cells). The format is cell-based. The procedure: Inoculate Huh7.5 cells into 96-well plates to a density of 3×10^4 cells/cm^2, culture for 24h, infect the cells with 45 IU/cell HCV supernatant, meanwhile, add drug solutions or solvent control for treatment.
Assay [4] deals with HIV-1 III B virus. Put plainly: Anti-HIV activity assay (P24 antigen in MT-4 cells). It is filed as cell-based.
Assay [5] has as its system PC12 cells. Put plainly: Neuroprotective activity assay, serum-deprived injury to PC12 cells (MTT). Conditions: Rattus norvegicus, PC-12, 48 h, 10 μM test compound, 48 h; Control 100.0 ± 9.2, Model 69.3 ± 4.1; read-out: serum-deprived (surviving PC12 cells, MTT 570 nm). It is filed as cell-based. An outline of the steps: (§1)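 PC12 cells on poly-lysine plated 24 h, then injured 48 h by serum-free DMEM or 4 μM rotenone with 10 μM test compound present during injury. Viability read by MTT (4 h), absorbance 570 nm.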

Assay [6] concerns PC12 cells. Put plainly: Neuroprotective activity assay, rotenone injury to PC12 cells (MTT). The format is cell-based. Particulars: Rattus norvegicus, PC-12, 48 h, 10 μM test compound, 4 μM rotenone, 48 h; Control 100.0 ± 8.9, Model 73.2 ± 7.8; read-out: rotenone (surviving PC12 cells, MTT 570 nm). An outline of the steps: as §1
Assay [7] concerns ovariectomized rats. As to the kind of experiment: Protective effect on bone osteoporosis in ovariectomized rats. Particulars: compared with raloxifene. The format is in vivo. The text has this: The present invention also relates to anti-osteoporotic effect of said compounds. According to literature reports, pigeonpea stilbene-type compounds belong to phytoestrogens, the anti-osteoporosis effect of natural products has to do with their estrogen-like effects.

Converted amounts (≈) assume the structure as drawn.

For `COc1cc(/C=C/c2ccccc2)c(C(=O)O)c(O)c1CC=C(C)C` [Compound 1, 2-hydroxy-3-isopentenyl-4-methoxy-6-[(E)-styryl]benzoic acid], the IC50 in assay [1] came out at 8.9 µg/mL (≈ 26.3 µM); in assay [2], 0.9 µg/mL (≈ 2.66 µM); in assay [4] (Human immunodeficiency virus 1, MT4, 96 h, read-out: HIV IC50), 0.27 µg/mL (≈ 0.798 µM). Moreover, the EC50 in assay [3] (Hepatitis C virus, Huh7.5, 72 h, read-out: HCV EC50) turned out to be 1.21 µg/mL (≈ 3.58 µM). Moreover, in assay [3] (statement in words), the “anti-HCV viral activity” value was “stronger anti-HIV, HCV viral activities”. In addition, in assay [4] (statement in words), the “anti-HIV viral activity” value was “stronger anti-HIV, HCV viral activities”. Also, the viability at 10 µM in assay [5] was determined as 19.3 ± 1.6%; in assay [6], 72.3 ± 5.9%. Further, in assay [7], the “in vivo anti-osteoporotic effect” value is listed as “stronger in vivo anti-osteoporotic effect than clinical drug raloxifene”.

The values are drawn from patent US9359298B2, “Cajanine structure analogous compound, preparation method and use” (INSTITUTE OF MEDICINAL BIOTECHNOLOGY, CHINESE ACADEMY OF …, priority 2011, dated 2016).
